One assay deals with splenic B cells. The assay can be described thus: B cell proliferation assay (splenic B cells, B16F10 lysate, Cell Trace Violet). To be noted: WT B cells with B16F10 lysates, 250 or 500 nM, 24 h. Type of assay: cell-based, mouse. The protocol: B cells were isolated from the spleen by using EasySep Mouse B cell Isolation Kit (19854; STEMCELL) and cultured in RPMI supplemented with […] non-essential amino acids (11140050; Thermo Fisher Scientific), 1 mM sodium pyruvate (11360070; Thermo Fisher Scientific), 1 mM Glutamax, 10 mM HEPES (15630080; Thermo Fisher Scientific), 0.1% 2-mercaptoethanol (21985023; Thermo Fisher Scientific), 10% FBS (F2442; Sigma-Aldrich) and 100 U/ml penicillin, and 100 µg/ml streptomycin (P4333; Sigma-Aldrich). B cells were stained with 5 nM CellTrace Violet Cell (C34557; Thermo Fisher Scientific) for 8 min in a 37°C water bath. B cells were plated at a concentration of 5 × 10^5 cells per 200 μl in round-bottom 96-well plates treated with 0.1% B16F10 melanoma cell lysis or 10 µg/ml goat anti-mouse IgM F(ab′)2 (115-006-020; Jackson ImmunoResearch). B cells were treated with NR-V04 or DMSO for 24 h and collected for flow cytometry analysis.
Mouse tumors were excised and ∼200 mg of tumor tissue was enzymatically and mechanically digested using the mouse Tumor Dissociation Kit (Miltenyi Biotec) to obtain a single-cell suspension. […] Flow cytometry was performed on a three laser Cytek Aurora Cytometer (Cytek Biosciences) and analyzed using FlowJo software (BD Biosciences). […]

Assay [1] relates to immune cells in the TME, spleen and blood. The assay is described as follows: Immune profile by flow cytometry in B16F10 tumor-bearing mice. Type of assay: in vivo, mouse. The protocol:
For syngeneic tumor models, 5 × 10^5 cells MC38, Yumm1.7, and Yummer1.7, 1 × 10^5 cells of B16F10 were resuspended in PBS and implanted into 7–9-wk-old mice subcutaneously. For the tumor inhibition experiment, mice were treated with 1.8 mg/kg NR-V04 or 0.75 mg/kg celastrol by i.p. injection twice weekly. For the immune profile experiment, once tumors reached 0.5 cm in diameter, mice were treated with 1.8 mg/kg NR-V04 by i.p. injection twice weekly. For the toxicity experiment, male and female non-tumor-bearing mice were treated with 2 mg/kg NR-V04 for two doses in the first week and 5 mg/kg for another two doses in the second week. Blood samples were taken from the submandibular (facial) vein before each treatment and 42 days later for hematological analysis, and body weight was measured twice per week up to day 42. Mice were euthanized in accordance with the IACUC protocol once the largest tumors reached 2 cm in diameter, and tissues were collected for further analysis.
Mouse tumors were excised and ∼200 mg of tumor tissue was enzymatically and mechanically digested using the mouse Tumor Dissociation Kit (Miltenyi Biotec) to obtain a single-cell suspension. Human tumor samples and sections were enzymatically and mechanically digested using the human Tumor Dissociation Kit (Miltenyi Biotec) to obtain single-cell suspension. Red blood cells were lysed using ACK lysis buffer and mononuclear cells were isolated by density gradient using SepMate Tubes (StemCell Technologies) and Lymphoprep density gradient media (StemCell Technologies). Mouse cells were then washed and incubated with combinations of the following antibodies: anti-mouse CD62L-BV785 (clone MEL-14), anti-mouse MHCII I-A/I-E-BB515 (Clone 2G9, 1:400; BD Biosciences), anti-mouse CD11B-PEdazzle 594 (clone M1/70, 1:200), anti-mouse CD45-AF532 (clone 30F.11), anti-mouse CD3-APC/Cy7 (clone 17A2), anti-mouse CD8-BV510 (clone 53-6.7), anti-mouse CD4-BV605 (clone GK1.5), anti-mouse NK1.1-AF700 (clone PK136), anti-mouse/human CD45R/B220-BV 570 (clone RA3-6B2), anti-mouse CD138-BV711 (clone 281-2), […], anti-mouse IgD-PE-Cy7 (clone 11-26c.2a), anti-mouse Ly6G-FITC (clone IA8), anti-mouse Ly6C-BV711 (clone HK1.4), anti-mouse CD38-PerCP/Cy 5.5 (clone 90) anti-mouse IgM-AF488 (clone RMM-1), anti-mouse CD25-PE-Cy5 (clone PC61) plus zombie red (cell viability; Thermo Fisher Scientific), and mouse FcR blocker (anti-mouse CD16/CD32, clone 2.4G2; BD Biosciences). After surface staining, cells were fixed and permeabilized using the FOXP3/Transcription Factor Staining Buffer Set (eBioscience). Cells were stained with a combination of the following antibodies: anti-mouse FOXP3-efluor 450 (clone FJK-16S, 1:50; eBioscience), anti-mouse Granzyme B-BV421 (clone GB11), and anti-mouse NR4A1-PE (clone 12.14; eBioscience). Human cells were stained with a combination of the following antibodies: anti-human CD45-BV510 (clone H130), anti-human CD3-AF700 (clone HIT5a), anti-human CD4-BV421 (clone OKT4), anti-human CD8-BV711 (clone RPA-T8), anti-human CD127-BV605 (clone A019DS), anti-human CD25-PE-Cy7 (clone MA251) plus FVD-eFluor-780 (eBioscience), and human FcR blocking reagent (StemCell Technologies). Cells were washed then fixed and permeabilized using the eBioscience FOXP3/Transcription Factor Staining Buffer Set. […] Flow cytometry was performed on a three laser Cytek Aurora Cytometer (Cytek Biosciences) and analyzed using FlowJo software (BD Biosciences). […]
On the technique in general: Flow cytometry measures light scatter and fluorescence of single cells or particles in a stream.

The target in a further assay is NR4A1 and VHL (Homo sapiens, UniProt P22736+P40337). The assay is described as follows: Co-IP of Flag-NR4A1 and VHL in HEK293T cells. Type of assay: cell-based. To be noted: 500 nM, 16 h, 0.5 μM MG132. The procedure: HEK293T cells were transfected with 3 µg Flag-NR4A1 (HG17699-CF; SinoBiological) for 36 h in Opti-MEM (31985062; Thermo Fisher Scientific) medium with 10 µl GeneTran III reagent (GT2211; Biomiga).
HEK293T cells were transfected with Flag-NR4A1 for 36 h, following with treatment of either DMSO or 500 nM […] for 16 h, together with 500 nM MG132 included to prevent protein degradation. Proteins were extracted using RIPA lysis buffer without SDS (150 mM NaCl, 5 mM EDTA, 50 mM Tris, pH 8.0, 0.5% sodium deoxycholate, and 1% NP-40) supplemented with 1% protease inhibitor cocktail (C0001; TargetMol). IP was performed using Anti-FLAG M2 Magnetic Beads (M8823; Sigma-Aldrich) as per the manufacturer’s protocol. The immunoprecipitated samples were eluted with 2× SDS sample buffer and boiled for 5 min at 95°C. The samples were then subjected to denaturation, SDS-PAGE, and immunoblotting analysis.

Chain of NR4A1 and VHL (P22736 whole entry): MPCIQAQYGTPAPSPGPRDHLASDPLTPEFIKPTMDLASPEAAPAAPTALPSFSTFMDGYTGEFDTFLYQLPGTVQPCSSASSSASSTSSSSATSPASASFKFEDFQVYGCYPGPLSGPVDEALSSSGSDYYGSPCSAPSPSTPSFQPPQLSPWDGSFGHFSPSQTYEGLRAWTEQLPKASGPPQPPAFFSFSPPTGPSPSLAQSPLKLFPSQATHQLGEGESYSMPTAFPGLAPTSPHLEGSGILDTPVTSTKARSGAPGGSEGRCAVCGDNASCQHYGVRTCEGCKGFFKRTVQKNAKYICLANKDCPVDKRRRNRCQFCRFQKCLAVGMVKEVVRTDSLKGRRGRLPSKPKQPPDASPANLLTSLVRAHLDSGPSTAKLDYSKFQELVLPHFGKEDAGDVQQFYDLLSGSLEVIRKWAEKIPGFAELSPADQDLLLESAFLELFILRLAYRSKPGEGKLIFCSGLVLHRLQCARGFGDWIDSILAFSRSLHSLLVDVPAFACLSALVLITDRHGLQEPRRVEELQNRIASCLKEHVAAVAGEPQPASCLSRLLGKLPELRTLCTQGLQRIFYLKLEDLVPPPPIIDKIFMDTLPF
Chain of NR4A1 and VHL (P40337 whole entry): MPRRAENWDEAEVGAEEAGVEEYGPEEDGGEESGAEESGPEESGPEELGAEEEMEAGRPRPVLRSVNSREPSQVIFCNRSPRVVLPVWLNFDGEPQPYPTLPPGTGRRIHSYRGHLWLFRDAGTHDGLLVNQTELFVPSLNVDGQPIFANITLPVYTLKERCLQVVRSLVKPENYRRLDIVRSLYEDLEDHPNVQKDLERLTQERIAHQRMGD
Chain of NR4A1 and VHL (Q15369 whole entry partner): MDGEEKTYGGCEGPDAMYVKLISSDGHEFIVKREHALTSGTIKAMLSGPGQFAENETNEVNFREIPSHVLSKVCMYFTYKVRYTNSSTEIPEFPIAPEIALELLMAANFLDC
Chain of NR4A1 and VHL (Q15370 whole entry partner): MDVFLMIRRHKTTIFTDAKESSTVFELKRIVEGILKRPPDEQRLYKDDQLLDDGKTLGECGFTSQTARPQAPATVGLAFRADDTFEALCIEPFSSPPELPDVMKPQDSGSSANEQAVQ

Consider `CC1=C(O)C(=O)C=C2C1=CC=C1[C@@]2(C)CC[C@@]2(C)[C@@H]3C[C@](C)(C(=O)NCCOCCOCCOCCOCC(=O)N[C@H](C(=O)N4C[C@H](O)C[C@H]4C(=O)N[C@@H](C)c4ccc(-c5scnc5C)cc4)C(C)(C)C)CC[C@]3(C)CC[C@]12C` [NR-V04], for which, in the assay on splenic B cells, the B cell proliferation result is listed as “significantly increased B cell proliferation” and the “NR4A1 in B cells” value was “led to NR4A1 degradation in B cells”. Also, the “B cells in the spleen and blood” value in assay [1] (B16F10 model, 2 doses of 1.8 mg/kg i.p.) is “no significant change”. The “CD8^+ Texh cells in vivo” value in assay [1] (B16F10 tumors) was “did not observe a significant decrease in CD8^+ Texh cells”. The “TI-B cells (B220^+ cells)” value in assay [1] (B16F10 tumors, 2 doses of 1.8 mg/kg i.p. on day 1 and day 4, collected day 7, vehicle 14.7%) is recorded as 30.1%. For the same compound, in assay [1] (spleen and tumors, B16F10 model, 2 doses of 1.8 mg/kg i.p.), the “effector memory CD8 T cells (CD44^+CD62L^− Tem)” value is reported as “increase in effector memory CD8 T cells”. For the same compound, the “monocytic myeloid-derived suppressor cells (m-MDSC, CD11B^+Ly6C^+)” value in assay [1] (tumors and blood, B16F10 model, 2 doses of 1.8 mg/kg i.p.) is reported as “decrease in monocytic myeloid-derived suppressor cells”. In addition, on NR4A1 and VHL, the Co-IP complex formation result was “complex formation between NR4A1 and VHL”.

The values above are taken from PMC10857906, “PROTAC-mediated NR4A1 degradation as a novel strategy for cancer immunotherapy” (The Journal of Experimental Medicine, 2024).
